# Laboratory results as given in patent US20060110787A1, “Use of fluorine-18-labeled fluoroquinolone antibiotics for diagnosing and monitoring bacterial infection” (The Board Trustees of the University of Arkansas, priority 2004, published 2006).
# System: bacterial infections (bone, wound, respiratory and other)
# Experiment: PET scan imaging of human subjects after intravenous injection of the 18F-labeled fluoroquinolone
# Format: in vivo
# Conditions: 700 to 1400 MBq i.v.; PET scan 30 to 60 minutes after injection; patients with various bacterial infections vs healthy subjects
# Procedure: [^18F]ciprofloxacin administration to human subjects suspected of having bacterial infection and PET monitoring of the localization of [^18F] in the subjects. Healthy subjects are injected intravenously with 700 to 1400 MBq of [^18F]ciprofloxacin. In order to correct for the attenuation of photons by tissue, a transmission scan with two 400-MBq pin sources or from CT data (if the scan is acquired on a PET/CT scanner) is recorded after obtaining the emission scan. Thirty to sixty minutes after injection of [^18F]ciprofloxacin, data are obtained by PET scan of the regions of concern (such as the whole body or a specific area such as the hip or chest, depending on the clinical need) . Each subject is positioned supine on the imaging bed. The data on healthy subjects establish the appearance of the distribution of [^18F]ciprofloxacin in uninfected patients.
# The same protocol is used on patients diagnosed by other criteria with bacterial bone infections, bacterial wound infections, bacterial respiratory infections, and other bacterial infections.
# Healthy subjects and subjects confirmed by conventional diagnostic methods to have bacterial infections of various types are injected intravenously with 700 to 1400 MBq of [^18F]fleroxacin. After 30 to 60 minutes, the subjects are subjected to PET scan imaging as described in Example 1.
row,Compound,PET scan results of patients with bacterial infections versus healthy volunteers
1,O=C(O)c1cn(C2CC2)c2cc(N3CCNCC3)c(F)cc2c1=O [[^18F]ciprofloxacin],distinguishable from the PET scan results of healthy volunteers
2,[^18F]fleroxacin,distinguishable from the PET scan results of healthy volunteers
